Measured values from article PMC12668310, “High‐Throughput Synthesis and Screening of a Cyanimide Library Identifies Selective Inhibitors of ISG15‐Specific Protease mUSP18” (Angewandte Chemie (International Ed. in English), 2025).

Legend:
Type in all cases: biochemical
USP24 = target: T1, USP24 (Homo sapiens, UniProt Q9UPU5); assay: High-throughput screening, Ub-RhoMP, single dose 1.25 µM; settings: for %inhibition USP24: crude in-plate synthesized compound, 1.25 µM assuming full conversion; for inhibition at 1.25 µM: individual amine building block (plate NCN-5), read-out: BB %inhibition USP24
T1 construct: (1-2620); His10; purchased Biotechne E-616
T1 sequence (Q9UPU5 whole entry): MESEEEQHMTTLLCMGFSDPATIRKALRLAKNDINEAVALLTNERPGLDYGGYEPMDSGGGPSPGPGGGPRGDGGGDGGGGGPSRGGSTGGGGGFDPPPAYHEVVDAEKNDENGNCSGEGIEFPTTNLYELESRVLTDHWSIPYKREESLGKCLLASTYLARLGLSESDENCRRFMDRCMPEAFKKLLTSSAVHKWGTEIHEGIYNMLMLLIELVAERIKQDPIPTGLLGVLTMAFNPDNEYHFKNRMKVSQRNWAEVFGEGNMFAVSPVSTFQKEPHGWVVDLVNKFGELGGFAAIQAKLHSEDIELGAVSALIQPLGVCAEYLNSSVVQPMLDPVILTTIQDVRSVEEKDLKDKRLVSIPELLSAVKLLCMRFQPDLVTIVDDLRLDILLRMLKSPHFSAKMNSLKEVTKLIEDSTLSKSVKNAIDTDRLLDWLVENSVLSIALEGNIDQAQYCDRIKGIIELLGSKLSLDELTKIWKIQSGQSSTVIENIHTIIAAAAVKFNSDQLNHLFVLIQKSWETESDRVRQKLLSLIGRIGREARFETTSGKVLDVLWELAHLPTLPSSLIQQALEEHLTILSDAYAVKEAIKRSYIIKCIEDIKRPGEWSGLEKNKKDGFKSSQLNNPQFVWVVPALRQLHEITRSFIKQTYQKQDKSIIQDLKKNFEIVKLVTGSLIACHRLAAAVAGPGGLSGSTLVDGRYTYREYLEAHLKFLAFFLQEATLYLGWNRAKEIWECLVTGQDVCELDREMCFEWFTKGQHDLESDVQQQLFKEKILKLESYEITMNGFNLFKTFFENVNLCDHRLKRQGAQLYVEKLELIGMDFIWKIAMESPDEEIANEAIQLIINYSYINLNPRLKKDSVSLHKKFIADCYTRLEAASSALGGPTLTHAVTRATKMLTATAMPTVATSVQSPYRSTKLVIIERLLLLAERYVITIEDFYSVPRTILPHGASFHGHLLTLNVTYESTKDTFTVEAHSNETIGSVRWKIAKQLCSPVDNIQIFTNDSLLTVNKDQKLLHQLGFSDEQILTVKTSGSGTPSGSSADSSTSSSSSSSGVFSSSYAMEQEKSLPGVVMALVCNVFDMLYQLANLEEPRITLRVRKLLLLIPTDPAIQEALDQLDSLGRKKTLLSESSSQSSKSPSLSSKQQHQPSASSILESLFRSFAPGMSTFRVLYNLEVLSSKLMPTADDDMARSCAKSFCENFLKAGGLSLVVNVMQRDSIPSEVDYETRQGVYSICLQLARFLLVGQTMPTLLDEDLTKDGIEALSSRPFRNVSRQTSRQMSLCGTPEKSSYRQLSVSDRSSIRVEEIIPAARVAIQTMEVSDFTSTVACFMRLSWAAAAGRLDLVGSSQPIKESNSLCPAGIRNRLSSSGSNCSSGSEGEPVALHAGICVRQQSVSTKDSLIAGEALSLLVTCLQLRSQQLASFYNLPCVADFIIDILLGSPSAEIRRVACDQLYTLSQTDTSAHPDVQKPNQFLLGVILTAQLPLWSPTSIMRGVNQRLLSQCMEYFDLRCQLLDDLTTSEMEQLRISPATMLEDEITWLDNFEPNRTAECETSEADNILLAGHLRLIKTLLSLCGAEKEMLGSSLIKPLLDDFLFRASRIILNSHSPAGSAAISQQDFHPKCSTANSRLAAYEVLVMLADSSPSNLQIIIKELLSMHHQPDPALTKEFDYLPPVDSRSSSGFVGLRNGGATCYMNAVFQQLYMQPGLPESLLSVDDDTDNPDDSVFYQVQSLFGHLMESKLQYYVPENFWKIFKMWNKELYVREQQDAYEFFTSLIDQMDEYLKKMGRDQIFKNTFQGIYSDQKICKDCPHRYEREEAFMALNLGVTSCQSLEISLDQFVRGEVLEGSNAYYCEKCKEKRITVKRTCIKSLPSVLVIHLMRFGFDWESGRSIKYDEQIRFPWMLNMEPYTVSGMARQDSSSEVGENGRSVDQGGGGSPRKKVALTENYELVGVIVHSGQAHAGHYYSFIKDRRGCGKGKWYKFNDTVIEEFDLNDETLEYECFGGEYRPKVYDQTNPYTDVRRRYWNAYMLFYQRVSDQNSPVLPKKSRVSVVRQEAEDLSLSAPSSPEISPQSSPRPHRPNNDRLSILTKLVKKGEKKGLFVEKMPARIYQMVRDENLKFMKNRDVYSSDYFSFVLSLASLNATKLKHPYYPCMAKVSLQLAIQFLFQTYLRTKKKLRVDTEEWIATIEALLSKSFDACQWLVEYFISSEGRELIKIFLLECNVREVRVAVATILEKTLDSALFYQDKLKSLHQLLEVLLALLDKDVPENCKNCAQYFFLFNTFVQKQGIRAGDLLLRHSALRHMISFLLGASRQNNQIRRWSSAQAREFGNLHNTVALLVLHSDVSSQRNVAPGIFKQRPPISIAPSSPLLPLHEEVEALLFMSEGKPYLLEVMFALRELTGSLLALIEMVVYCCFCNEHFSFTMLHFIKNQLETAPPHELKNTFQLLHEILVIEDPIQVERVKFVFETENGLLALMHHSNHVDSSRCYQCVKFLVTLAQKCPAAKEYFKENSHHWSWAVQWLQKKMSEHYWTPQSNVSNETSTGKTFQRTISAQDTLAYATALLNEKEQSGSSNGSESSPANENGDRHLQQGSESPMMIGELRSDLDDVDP
Description: (§1) Since the in‐plate synthesis was conducted in 1536‐well Echo plates, the compounds could readily be transferred from these plates into 1536‐well assay plates using acoustic liquid dispensing (Figure 2a) and subjected to HTS. We screened the whole 7536 compound library against a panel of twelve enzymes, including three DUBs from the UCH family, two DUBs from the OTU family, five DUBs from the USP family, plus ISG15 protease USP18, and SUMO protease SENP1. Each compound was tested at a single dose of 1.25 µM, assuming full conversion (10 mM in DMSO of the formed products) during the in‐plate synthesis, using the fluorogenic assay described above. […] The compounds are sorted by the amine building blocks (BB1‐16), and within each BB, sorted by carboxylic acid (CA1‐471), thereby providing a comprehensive and systematic overview of the overall inhibition by each BB and CA combination. Some interesting patterns can be obtained from this map. […] Indeed, BB10 is the privileged scaffold for UCHL1 as it originates from UCHL1 inhibitor 5 (Figure 1). […] On the other hand, OTUD1 and USP32 show a much higher hit rate, and this is even more pronounced for USP30 and ISG15 protease mUSP18, each showing many active compounds distributed over several BB's.
(§2) Purified recombinant enzymes used in this study
(§3) High-throughput screening
(§4) The screens were performed at room temperature in “flat bottom, non-treated, black […]
(§5) µM. The compounds (10 nL each) were transferred from the 1 mM daughter plates to the […]
(§6) Four wells containing DMSO
(§7) (10 nL) and four wells containing NEM (10 mM final concentration) were used in each plate […]
(§8) solution (1.33x final concentration) was added to each well, followed by incubation for 30 min.
(§9) Next, 2 µL of a substrate solution (4x final concentration) was added to each well (Ub-RhoMP[2]
(§10) After 1h or 2h incubation the
(§11) The percentage inhibition was calculated for each well using the […]
(§12) Where FIx is the fluorescence intensity of each well, FIpos is the average fluorescence intensity of the positive (NEM) control wells, and FIneg is the average fluorescence intensity of the negative (DMSO) control wells.

UCHL5 = target: T2, UCHL5 (Homo sapiens, UniProt Q9Y5K5); assay: as above; settings: for %inhibition UCHL5: crude in-plate synthesized compound, 1.25 µM assuming full conversion; for inhibition at 1.25 µM: individual amine building block (plate NCN-5), read-out: BB %inhibition UCHL5
T2 construct: (1-329); purchased Novus biochemicals NBP1-72315
T2 sequence (Q9Y5K5 1-329): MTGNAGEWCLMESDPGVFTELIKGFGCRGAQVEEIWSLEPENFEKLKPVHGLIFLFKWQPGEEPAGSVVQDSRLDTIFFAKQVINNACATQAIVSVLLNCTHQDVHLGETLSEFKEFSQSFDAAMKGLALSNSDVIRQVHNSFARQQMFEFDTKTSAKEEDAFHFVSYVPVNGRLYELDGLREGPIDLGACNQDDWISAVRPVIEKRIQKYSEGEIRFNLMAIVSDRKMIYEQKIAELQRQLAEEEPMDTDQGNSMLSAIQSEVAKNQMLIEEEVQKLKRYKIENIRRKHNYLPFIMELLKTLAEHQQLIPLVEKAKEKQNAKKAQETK
Description: as §1, §2, §3, §4, §5, §6, §7, §8, §9, §10, §11, §12

USP8 = target: T3, USP8 (Homo sapiens, UniProt P40818); assay: as above; settings: for %inhibition USP8: crude in-plate synthesized compound, 1.25 µM assuming full conversion; for BB %inhibition USP8: individual amine building block (plate NCN-5)
T3 construct: (1-1118); purchased Ubiquigent 64-0053-050
T3 sequence (P40818 1-1118): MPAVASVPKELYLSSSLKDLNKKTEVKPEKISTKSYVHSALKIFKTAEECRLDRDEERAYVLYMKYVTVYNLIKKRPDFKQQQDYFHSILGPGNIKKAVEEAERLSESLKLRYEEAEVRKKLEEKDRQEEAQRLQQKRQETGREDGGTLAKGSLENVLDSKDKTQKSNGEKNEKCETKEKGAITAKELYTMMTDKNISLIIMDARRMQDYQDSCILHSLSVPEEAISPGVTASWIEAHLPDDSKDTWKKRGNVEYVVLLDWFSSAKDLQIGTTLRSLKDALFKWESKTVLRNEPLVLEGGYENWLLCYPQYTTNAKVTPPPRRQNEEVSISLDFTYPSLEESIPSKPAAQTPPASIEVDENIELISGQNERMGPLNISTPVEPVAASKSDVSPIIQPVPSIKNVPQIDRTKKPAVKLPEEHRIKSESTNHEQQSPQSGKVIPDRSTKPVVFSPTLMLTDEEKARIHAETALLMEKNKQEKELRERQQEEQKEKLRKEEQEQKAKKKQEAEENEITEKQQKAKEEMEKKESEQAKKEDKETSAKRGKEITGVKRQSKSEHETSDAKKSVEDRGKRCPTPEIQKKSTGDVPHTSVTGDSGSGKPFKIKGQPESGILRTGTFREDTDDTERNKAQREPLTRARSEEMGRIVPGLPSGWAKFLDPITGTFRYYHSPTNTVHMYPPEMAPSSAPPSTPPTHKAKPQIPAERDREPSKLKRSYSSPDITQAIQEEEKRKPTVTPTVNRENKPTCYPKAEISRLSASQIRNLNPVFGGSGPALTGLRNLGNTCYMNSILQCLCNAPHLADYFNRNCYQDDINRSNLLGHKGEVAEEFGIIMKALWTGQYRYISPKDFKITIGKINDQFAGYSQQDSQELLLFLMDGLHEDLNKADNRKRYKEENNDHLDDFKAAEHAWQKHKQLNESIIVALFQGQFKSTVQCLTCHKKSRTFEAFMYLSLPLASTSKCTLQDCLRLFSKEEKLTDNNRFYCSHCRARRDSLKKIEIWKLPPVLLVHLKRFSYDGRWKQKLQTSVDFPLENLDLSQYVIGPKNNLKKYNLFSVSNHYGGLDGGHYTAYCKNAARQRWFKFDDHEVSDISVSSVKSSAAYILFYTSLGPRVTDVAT
Description: as §1, §2, §3, §4, §5, §6, §7, §8, §9, §10, §11, §12

UCHL1 = target: T4, UCHL1 (Homo sapiens, UniProt P09936); assay: as above; settings: for %inhibition UCHL1: crude in-plate synthesized compound, 1.25 µM assuming full conversion; for inhibition at 1.25 µM: individual amine building block (plate NCN-5), read-out: BB %inhibition UCHL1
T4 construct: (1-223); made in house
T4 sequence (P09936 1-223): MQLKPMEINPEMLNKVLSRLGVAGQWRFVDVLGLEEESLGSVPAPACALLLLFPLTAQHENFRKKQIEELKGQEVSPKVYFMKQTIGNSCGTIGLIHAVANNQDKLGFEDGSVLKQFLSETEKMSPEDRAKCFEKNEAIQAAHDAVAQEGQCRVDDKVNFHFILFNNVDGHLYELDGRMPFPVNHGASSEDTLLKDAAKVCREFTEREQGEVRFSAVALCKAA
Description: as §1, §2, §3, §4, §5, §6, §7, §8, §9, §10, §11, §12

USP32 = target: T5, USP32 (Homo sapiens, UniProt Q8NFA0); assay: as above; settings: for %inhibition USP32: crude in-plate synthesized compound, 1.25 µM assuming full conversion; for inhibition at 1.25 µM: individual amine building block (plate NCN-5), read-out: BB %inhibition USP32
T5 construct: (1-1604); His-tag (N); made in house
T5 sequence (Q8NFA0 whole entry): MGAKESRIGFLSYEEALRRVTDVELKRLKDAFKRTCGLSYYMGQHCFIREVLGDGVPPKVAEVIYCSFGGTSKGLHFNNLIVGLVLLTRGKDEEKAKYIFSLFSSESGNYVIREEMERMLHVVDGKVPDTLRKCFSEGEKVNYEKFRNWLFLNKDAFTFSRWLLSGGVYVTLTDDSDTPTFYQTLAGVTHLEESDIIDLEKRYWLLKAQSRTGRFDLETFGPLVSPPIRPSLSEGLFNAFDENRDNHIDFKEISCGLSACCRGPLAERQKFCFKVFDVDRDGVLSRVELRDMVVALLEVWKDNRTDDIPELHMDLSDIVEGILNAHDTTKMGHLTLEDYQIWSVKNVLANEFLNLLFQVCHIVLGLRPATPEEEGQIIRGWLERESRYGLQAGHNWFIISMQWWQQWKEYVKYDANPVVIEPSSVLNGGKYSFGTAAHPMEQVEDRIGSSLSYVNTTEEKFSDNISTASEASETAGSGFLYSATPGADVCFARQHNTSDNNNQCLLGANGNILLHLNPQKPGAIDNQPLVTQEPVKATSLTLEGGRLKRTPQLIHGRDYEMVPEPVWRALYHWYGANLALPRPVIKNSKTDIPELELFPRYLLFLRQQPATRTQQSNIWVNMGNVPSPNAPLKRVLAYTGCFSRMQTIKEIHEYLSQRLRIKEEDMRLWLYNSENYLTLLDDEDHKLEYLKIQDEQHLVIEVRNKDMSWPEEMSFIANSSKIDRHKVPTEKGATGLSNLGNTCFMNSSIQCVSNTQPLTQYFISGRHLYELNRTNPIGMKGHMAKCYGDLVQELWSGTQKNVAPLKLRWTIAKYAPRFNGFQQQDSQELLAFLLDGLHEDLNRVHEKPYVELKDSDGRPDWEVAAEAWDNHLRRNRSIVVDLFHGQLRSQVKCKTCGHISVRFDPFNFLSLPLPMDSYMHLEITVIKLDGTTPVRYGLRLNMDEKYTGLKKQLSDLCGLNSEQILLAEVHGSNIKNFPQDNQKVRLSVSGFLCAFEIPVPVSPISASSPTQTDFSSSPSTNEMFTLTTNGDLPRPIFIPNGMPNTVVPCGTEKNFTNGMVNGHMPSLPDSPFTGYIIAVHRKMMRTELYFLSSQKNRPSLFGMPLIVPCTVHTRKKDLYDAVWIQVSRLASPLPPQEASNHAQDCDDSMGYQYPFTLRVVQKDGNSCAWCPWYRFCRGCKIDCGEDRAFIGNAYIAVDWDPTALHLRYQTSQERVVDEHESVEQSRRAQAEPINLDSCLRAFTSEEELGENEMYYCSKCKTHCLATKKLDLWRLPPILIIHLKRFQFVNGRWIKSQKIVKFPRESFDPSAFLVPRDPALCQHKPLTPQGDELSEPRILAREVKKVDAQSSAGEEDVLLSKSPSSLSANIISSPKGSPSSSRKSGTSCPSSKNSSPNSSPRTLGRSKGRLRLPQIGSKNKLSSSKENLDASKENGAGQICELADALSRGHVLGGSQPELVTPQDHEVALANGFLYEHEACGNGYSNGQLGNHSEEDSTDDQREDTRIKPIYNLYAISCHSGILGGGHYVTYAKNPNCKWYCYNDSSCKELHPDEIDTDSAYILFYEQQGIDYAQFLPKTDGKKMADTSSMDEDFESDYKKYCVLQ
Description: as §1, §2, §3, §4, §5, §6, §7, §8, §9, §10, §11, §12

SENP1 = target: T6, SENP1 (Homo sapiens, UniProt Q9P0U3); assay: High-throughput screening, single dose 1.25 µM; settings: for %inhibition SENP1: crude in-plate synthesized compound, 1.25 µM assuming full conversion; for inhibition at 1.25 µM: individual amine building block (plate NCN-5), read-out: BB %inhibition SENP1
T6 sequence (Q9P0U3 419-644): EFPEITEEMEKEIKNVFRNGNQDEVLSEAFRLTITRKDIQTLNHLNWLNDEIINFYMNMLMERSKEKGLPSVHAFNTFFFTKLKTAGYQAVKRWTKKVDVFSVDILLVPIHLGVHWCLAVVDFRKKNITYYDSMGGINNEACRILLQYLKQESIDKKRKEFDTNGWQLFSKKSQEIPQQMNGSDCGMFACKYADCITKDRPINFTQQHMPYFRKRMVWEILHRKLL
Description: as §1, §2, §3, §4, §5, §6, §7, §8, §9, §10, §11, §12

%inhibition USP24 (USP24)	%inhibition UCHL5 (UCHL5)	%inhibition USP8 (USP8)	%inhibition UCHL1 (UCHL1)	%inhibition USP32 (USP32)	%inhibition SENP1 (SENP1)	inhibition at 1.25 µM (USP24)	inhibition at 1.25 µM (UCHL5)	BB %inhibition USP8 (USP8)	inhibition at 1.25 µM (UCHL1)	inhibition at 1.25 µM (USP32)	inhibition at 1.25 µM (SENP1)	Structure (SMILES)
–	–	–	–	–	–	5%	2.9%	1.7%	3.8%	5.3%	-5.2%	N#CN1CC(N)C1 [BB5]
–	–	–	–	–	–	3.1%	2.5%	-1.3%	0.4%	6%	-9%	N#CN1C[C@H]2C[C@@H](N)C[C@H]2C1 [BB6]
–	–	–	–	–	–	-3.9%	-1.4%	-1.7%	0.7%	2.8%	-11.7%	N#CN1C[C@H]2C[C@H](N)C[C@H]2C1 [BB7]
–	–	–	–	–	–	-0.279%	4.6%	1.5%	1%	1.3%	0.5%	N#CN1CCC[C@H](N)C1 [BB8]
–	–	–	–	–	–	0.33%	-9.9%	20.0%	-0.3%	2.8%	-5%	N#CN1CC[C@@H](NC(=O)c2ccc(CN)cc2)C1 [BB9]
–	–	–	–	–	–	-6.5%	-7.1%	-2.4%	-2.6%	-1.5%	-12.3%	N#CN1CC[C@H](CN)C1 [BB11]
–	–	–	–	–	–	5.7%	0.225%	0.0%	0.8%	1.1%	10.1%	N#CN1C[C@H](N)[C@@H](O)C1 [BB13]
–	–	–	–	–	–	5.6%	-6%	2.7%	1%	-3.1%	0.022%	N#CN1C[C@@H](F)[C@@H](N)C1 [BB15]

The remaining lines, values behind:

Structure (SMILES)	%inhibition USP24 (USP24)	%inhibition UCHL5 (UCHL5)	%inhibition USP8 (USP8)	%inhibition UCHL1 (UCHL1)	%inhibition USP32 (USP32)	%inhibition SENP1 (SENP1)	inhibition at 1.25 µM (USP24)	inhibition at 1.25 µM (UCHL5)	BB %inhibition USP8 (USP8)	inhibition at 1.25 µM (UCHL1)	inhibition at 1.25 µM (USP32)	inhibition at 1.25 µM (SENP1)
N#CN1CC[C@@H](NC(=O)c2nc(N3CCCC3)ncc2Cl)C1 [BB01CA90]	0.9%	6.9%	29.2%	15.1%	19.4%	16.6%	–	–	–	–	–	–
N#CN1CC[C@@H](NC(=O)C(Cc2c[nH]cn2)NS(=O)(=O)c2ccc(Cl)cc2)C1 (stereo partly drawn) [BB01CA91]	-0.9%	8.4%	28.4%	11.2%	22.5%	13.2%	–	–	–	–	–	–
N#CN1CC[C@@H](NC(=O)Cc2csc(-c3cnccn3)n2)C1 [BB01CA92]	3.2%	6.2%	32.5%	8.8%	21.1%	12.8%	–	–	–	–	–	–
N#CN1CC[C@@H](NC(=O)CCN(Cc2ccccc2)S(=O)(=O)c2c(Cl)cccc2Cl)C1 [BB01CA93]	9.1%	5.2%	33.0%	9.7%	75.0%	8.6%	–	–	–	–	–	–
N#CN1CC[C@@H](NC(=O)c2ncoc2-c2cccs2)C1 [BB01CA94]	-1.8%	4.4%	24.1%	8.0%	15.3%	8.5%	–	–	–	–	–	–
N#CN1CC[C@@H](N)C1 [BB1]	–	–	–	–	–	–	6.1%	-4.7%	9.1%	2.6%	9.5%	1.3%
N#CN1CCC(N)CC1 [BB2]	–	–	–	–	–	–	5.5%	-3.3%	1.0%	4%	9%	-2.9%
N#CN1CC[C@H](N)C1 [BB3]	–	–	–	–	–	–	-1.4%	-5.8%	3.6%	1.1%	8.4%	-1%
N#CN1CCC[C@@H](N)C1 [BB4]	–	–	–	–	–	–	0.8%	-6.7%	5.3%	3.6%	4.7%	-2.1%
N#CN1CC[C@H](C(=O)Nc2nc3c(s2)CNCC3)C1 [BB10]	–	–	–	–	–	–	-1.8%	-11%	0.105%	~35%	1.5%	-5.4%
N#CN1C[C@@H]2C[C@H]1CN2 [BB12]	–	–	–	–	–	–	-3.7%	-5.3%	-2.5%	-1.2%	-1.2%	-9.2%
N#CN1CCC2(CCNC2)C1 (stereo not drawn) [BB14]	–	–	–	–	–	–	3.8%	-1.4%	7.8%	1%	0.344%	8.7%
